{"source": "patent US6770478B2", "about": "“Erythrocytic cells and method for preserving cells” (The Regents of the University of California, priority 2000, dated 2004)", "key": {"platelets [1]": {"system": "platelets", "conditions": "platelets cryopreserved with DMSO; cited from earlier work"}, "erythrocyte membranes": {"system": "erythrocyte membranes", "assay": "FTIR membrane phase transitions of intact erythrocytes (CH2 symmetric stretch around 2850 cm^-1)"}, "mesenchymal stem cells [2]": {"system": "mesenchymal stem cells", "assay": "Lucifer yellow CH loading of mesenchymal stem cells, viability by trypan blue exclusion", "type": "cell-based, human", "conditions": "LYCH loading over 3.5 hours, 37° C.", "description": "Lucifer Yellow CH-Loading. […] The pellet was split between two treatments."}, "platelets [3]": {"system": "platelets", "assay": "Stability and morphology of platelets during trehalose incubation (microscopy, flow cytometric analysis)", "type": "cell-based, human", "conditions": "4 hours incubation at 37° C., 25 mM external trehalose", "protocol": "The stability of the platelets during a 4 hours incubation period was studied using microscopy and flow cytometric analysis. […] No signs of microvesicle formation could be observed after 4 hours incubation, as can be judged by the stable relative proportion of microvesicle gated cells (less than 3%). The formation of microvesicles is usually considered as the first sign of platelet activation (Owners et al., Trans. Med. Rev., 8, 27-44, 1994). Characteristic antigens of platelet activation include: glycoprotein 53 (gp53, a lysosomal membrane marker), PECAM-1 (platelet endothelial cell adhesion molecule-1, an alpha granule constituent), and P-selection (an alpha granule membrane protein)."}, "mesenchymal stem cells [4]": {"system": "mesenchymal stem cells", "assay": "Growth curves of mesenchymal stem cells in presence of 90 mM trehalose", "type": "cell-based, human", "protocol": "Growth Curves. MSCs were plated into 12-welled plates at approximately the same seeding density used for T-185 flasks in standard Osiris protocols (5900 cells/cm^2 with fluid volume of 0.189 mL/cm^2). Three wells for each condition at each time point were trypsinized and counted. Data for cells grown in the presence of trehalose were lost for the first two time points. FIG. 13 is a graph illustrating growth curves for the mesenchymal stem cells in the presence or absence of 90 mM trehalose with the open triangle data representing cells grown in standard medium for 24 hours, after which 90 mM trehalose was added."}, "human platelets": {"system": "human platelets", "assay": "Loading of platelets with trehalose, quantified by anthrone reaction", "type": "cell-based", "conditions": "37° C., after 2 hours (rapid linear uptake)", "protocol": "Loading of Platelets with Trehalose. Washed platelets in a concentration of 1-2 10^9 platelets/ml were incubated at various temperatures in the presence of 1-20 mg/ml trehalose. Incubation temperatures were chosen from 4° C. to 37° C. Incubation times were varied from 0.5 to 4 hours. After incubation the platelet solutions were washed in buffer A two times (by centrifugation at 14,000 RPM for 20 s in a table centrifuge). Platelet counts were obtained on a coulter counter. Platelets were pelleted (45 S at 14,000 RPM) and sugars were extracted from the pellet using 80% methanol. The samples were heated for 30 minutes at 80° C. […] The amount of trehalose in the platelets was quantified using the anthrone reaction (Umbreit et al., Mamometric and Biochemical Techniques, 5th Edition, 1972). […] Then the samples were cooled on ice and the absorbance was measured at 620 nm on a Perkin Elmer spectrophotometer. The amount of platelet associated trehalose was determined using a standard curve of trehalose.\nQuantification of Trehalose and LYCH Concentration. Uptake was calculated for each sample as micrograms of trehalose or LYCH per platelet. The internal trehalose concentration was calculated assuming a platelet radius of 1.2 μm and by assuming that 50% of the platelet volume is taken up by the cytosol (rest is membranes). […]"}, "erythrocyte ghosts": {"system": "erythrocyte ghosts", "assay": "FTIR thermotropic response of erythrocyte ghosts", "type": "cell-based, human", "conditions": "MβCD treated ghosts", "protocol": "Cells were incubated at 37° C. for one hour in the presence of 10 mM methyl-β-cyclodextrin (MβCD) in order to remove cholesterol from the plasma membranes. Erythrocyte ghosts were prepared.\nFTIR Spectroscopy and Sample Preparation. […] Intact cells were cooled to −5° C., kept at this temperature for 15 minutes, and then rewarmed to determine the phase transitions. […] Four scans were accumulated for each spectrum between 3600-900 cm^−1 at 4 cm^−1 resolution.\nInverted second derivative spectra were normalized on the lipid […] 2850 cm^−1. Band positions were determined as described previously. The wavenumber (cm^−1) of the CH2 symmetric stretching vibration was plotted as a function of temperature. […] For the protein studies, the spectral region between 1600 and 1500 cm^−1 selected."}, "[5]": {"conditions": "Table III, Example 11, five blood donors, standard error, 10 mM MβCD"}}, "note": "Values joined by “and” are separate entries in the source; they are usually repeats but may differ in a detail not shown here. Identical values can stand only once. “Also recorded” adds a separate entry of the source."}
{"molecule": "C[S+](C)[O-]", "note": "[DMSO, dimethyl sulfoxide]", "values": [{"measurement": "overall responsiveness of frozen thawed platelets to various agonists compared with fresh platelets", "setting": "platelets [1]", "value": "less than 35%"}]}
{"molecule": "CC(C)c1c(C(=O)Nc2ccccc2)c(-c2ccccc2)c(-c2ccc(F)cc2)n1CC[C@@H](O)C[C@@H](O)CC(=O)O", "note": "[LIPITOR]", "values": [{"measurement": "total wavenumber excursion (from −5 to 45° C.)", "setting": "erythrocyte membranes; erythrocytes of a blood donor who used LIPITOR, other donors 0.8", "value": "~1.5", "unit": "cm⁻¹"}]}
{"molecule": "NNC(=O)NN1C(=O)c2cc(S(=O)(=O)O)cc3c(N)c(S(=O)(=O)O)cc(c23)C1=O", "note": "[LYCH, lucifer yellow CH]", "values": [{"measurement": "viability", "setting": "mesenchymal stem cells [2]", "value": "~70", "unit": "%"}]}
{"molecule": "OC[C@H]1O[C@H](O[C@H]2O[C@H](CO)[C@@H](O)[C@H](O)[C@H]2O)[C@H](O)[C@@H](O)[C@@H]1O", "note": "[trehalose]", "values": [{"measurement": "morphological changes of platelets", "setting": "platelets [3]", "value": "No morphological changes"}, {"measurement": "effect on cell count", "setting": "mesenchymal stem cells [4]; after the third day", "value": "cell count started to drop significantly"}, {"measurement": "effect on growth of the cells", "setting": "mesenchymal stem cells [4]; up to the third day", "value": "did not interfere with growth; also recorded: does not interfere with the growth and viability"}, {"measurement": "trehalose uptake", "setting": "human platelets", "value": "3.3×10^−10 mol/m^2s"}]}
{"molecule": "methyl-β-cyclodextrin [MβCD]", "values": [{"measurement": "transition temperature, first transition", "setting": "erythrocyte ghosts", "value": 4, "unit": "°C"}, {"measurement": "transition temperature, fourth transition", "setting": "erythrocyte ghosts", "value": 30, "unit": "°C"}, {"measurement": "transition temperature, second transition", "setting": "erythrocyte ghosts", "value": 12, "unit": "°C"}, {"measurement": "transition temperature, third transition", "setting": "erythrocyte ghosts", "value": 20, "unit": "°C"}, {"measurement": "wavenumber excursion from −5 to 45° C.", "setting": "erythrocyte membranes; Example 10, after cholesterol removal (control 0.7)", "value": 2.9, "unit": "cm⁻¹"}, {"measurement": "wavenumber excursion from −5 to 45° C.", "setting": "erythrocyte membranes; Example 11, after cholesterol removal (control 0.7)", "value": 2.9, "unit": "cm⁻¹"}, {"measurement": "Cooperativity, Low Transition", "setting": "erythrocyte membranes; Table II, Example 10, 1 mM MβCD, 37° C., one hour", "value": "0.051 ± 0.004", "unit": "cm^−1/° C."}, {"measurement": "Cooperativity, High Transition", "setting": "erythrocyte membranes; [5]", "value": "0.091 cm^−1/° C. and 0.091 ± 0.020 cm^−1/° C."}, {"measurement": "Cooperativity, Low Transition", "setting": "erythrocyte membranes; [5]", "value": "0.051 ± 0.004", "unit": "cm^−1/° C."}, {"measurement": "Cooperativity, Middle Transition", "setting": "erythrocyte membranes; [5]", "value": "0.095 cm^−1/° C. and 0.095 ± 0.015 cm^−1/° C."}, {"measurement": "Transition Temperature, High Transition", "setting": "erythrocyte membranes; [5]", "value": "35 °C and 35.4 ± 1.5 °C"}, {"measurement": "Transition Temperature, Low Transition", "setting": "erythrocyte membranes; [5]", "value": "15 °C and 15.3 ± 0.8 °C"}, {"measurement": "Transition Temperature, Middle Transition", "setting": "erythrocyte membranes; [5]", "value": "26 °C and 26.0 ± 0.8 °C"}]}
